Common to all, as to test: Kinase profile (33P ATP filter binding)
Holding throughout (type): biochemical

The target of one assay is ABL (Homo sapiens, UniProt P00519). As to conditions: read-out: Remaining protein kinase activity.
In another assay the target is IR (Homo sapiens, UniProt P06213). As to conditions: read-out: Remaining protein kinase activity.
The target of the next assay is T1, IRAK4 (Homo sapiens, UniProt Q9NWZ3).
T1 sequence (Q9NWZ3 1-460): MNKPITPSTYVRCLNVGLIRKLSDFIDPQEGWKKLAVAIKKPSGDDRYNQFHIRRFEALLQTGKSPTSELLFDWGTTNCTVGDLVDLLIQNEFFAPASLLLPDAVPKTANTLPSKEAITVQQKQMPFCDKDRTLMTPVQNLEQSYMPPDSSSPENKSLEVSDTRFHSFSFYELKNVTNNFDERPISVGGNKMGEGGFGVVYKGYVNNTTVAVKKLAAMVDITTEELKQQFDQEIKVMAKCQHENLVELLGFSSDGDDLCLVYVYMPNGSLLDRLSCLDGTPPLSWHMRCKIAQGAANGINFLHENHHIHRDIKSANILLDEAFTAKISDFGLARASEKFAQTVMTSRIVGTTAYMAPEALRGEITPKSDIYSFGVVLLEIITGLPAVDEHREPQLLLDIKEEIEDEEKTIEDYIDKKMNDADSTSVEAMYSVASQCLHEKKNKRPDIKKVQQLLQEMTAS

For another assay, the target named is IRR (Homo sapiens, UniProt P14616). As to conditions: read-out: Remaining protein kinase activity.
Chain of IRR (P14616 27-1297): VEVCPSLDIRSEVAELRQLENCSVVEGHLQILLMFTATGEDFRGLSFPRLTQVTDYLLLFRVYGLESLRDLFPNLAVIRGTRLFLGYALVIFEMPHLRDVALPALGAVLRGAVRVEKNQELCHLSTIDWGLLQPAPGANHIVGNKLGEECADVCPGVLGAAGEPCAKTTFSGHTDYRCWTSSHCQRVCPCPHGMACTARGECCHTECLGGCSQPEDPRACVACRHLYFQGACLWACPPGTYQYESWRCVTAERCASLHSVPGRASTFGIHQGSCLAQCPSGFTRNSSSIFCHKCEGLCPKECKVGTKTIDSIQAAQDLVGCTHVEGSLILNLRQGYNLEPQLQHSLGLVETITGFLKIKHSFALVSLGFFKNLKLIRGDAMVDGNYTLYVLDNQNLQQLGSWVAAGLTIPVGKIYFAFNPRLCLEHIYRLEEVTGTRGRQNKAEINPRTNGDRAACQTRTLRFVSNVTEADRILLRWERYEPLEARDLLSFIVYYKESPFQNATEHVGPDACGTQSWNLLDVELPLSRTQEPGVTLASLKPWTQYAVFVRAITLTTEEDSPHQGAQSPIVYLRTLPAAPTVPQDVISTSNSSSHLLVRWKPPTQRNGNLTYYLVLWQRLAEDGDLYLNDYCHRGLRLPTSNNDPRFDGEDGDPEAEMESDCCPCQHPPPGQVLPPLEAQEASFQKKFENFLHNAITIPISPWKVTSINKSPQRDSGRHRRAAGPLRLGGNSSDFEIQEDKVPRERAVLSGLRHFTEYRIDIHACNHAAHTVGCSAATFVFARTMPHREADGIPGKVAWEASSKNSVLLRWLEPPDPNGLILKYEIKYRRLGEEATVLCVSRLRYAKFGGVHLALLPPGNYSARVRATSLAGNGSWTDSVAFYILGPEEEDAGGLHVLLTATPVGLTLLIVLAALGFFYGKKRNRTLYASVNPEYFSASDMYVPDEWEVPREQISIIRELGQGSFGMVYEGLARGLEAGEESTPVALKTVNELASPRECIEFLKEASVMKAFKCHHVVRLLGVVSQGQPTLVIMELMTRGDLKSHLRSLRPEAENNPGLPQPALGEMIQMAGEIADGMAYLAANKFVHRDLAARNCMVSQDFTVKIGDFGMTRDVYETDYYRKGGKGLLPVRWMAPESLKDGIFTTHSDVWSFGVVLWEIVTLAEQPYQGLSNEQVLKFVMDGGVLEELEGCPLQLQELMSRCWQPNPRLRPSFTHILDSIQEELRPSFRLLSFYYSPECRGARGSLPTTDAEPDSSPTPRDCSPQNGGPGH
In a further assay the target is JAK2 (Homo sapiens, UniProt O60674).
Another assay addresses MARK1 (Homo sapiens, UniProt Q9P0L2). As to conditions: read-out: Remaining protein kinase activity.
A further assay deals with MARK3 (Homo sapiens, UniProt P27448). As to conditions: read-out: Remaining protein kinase activity.
Chain of MARK3 (P27448 whole entry): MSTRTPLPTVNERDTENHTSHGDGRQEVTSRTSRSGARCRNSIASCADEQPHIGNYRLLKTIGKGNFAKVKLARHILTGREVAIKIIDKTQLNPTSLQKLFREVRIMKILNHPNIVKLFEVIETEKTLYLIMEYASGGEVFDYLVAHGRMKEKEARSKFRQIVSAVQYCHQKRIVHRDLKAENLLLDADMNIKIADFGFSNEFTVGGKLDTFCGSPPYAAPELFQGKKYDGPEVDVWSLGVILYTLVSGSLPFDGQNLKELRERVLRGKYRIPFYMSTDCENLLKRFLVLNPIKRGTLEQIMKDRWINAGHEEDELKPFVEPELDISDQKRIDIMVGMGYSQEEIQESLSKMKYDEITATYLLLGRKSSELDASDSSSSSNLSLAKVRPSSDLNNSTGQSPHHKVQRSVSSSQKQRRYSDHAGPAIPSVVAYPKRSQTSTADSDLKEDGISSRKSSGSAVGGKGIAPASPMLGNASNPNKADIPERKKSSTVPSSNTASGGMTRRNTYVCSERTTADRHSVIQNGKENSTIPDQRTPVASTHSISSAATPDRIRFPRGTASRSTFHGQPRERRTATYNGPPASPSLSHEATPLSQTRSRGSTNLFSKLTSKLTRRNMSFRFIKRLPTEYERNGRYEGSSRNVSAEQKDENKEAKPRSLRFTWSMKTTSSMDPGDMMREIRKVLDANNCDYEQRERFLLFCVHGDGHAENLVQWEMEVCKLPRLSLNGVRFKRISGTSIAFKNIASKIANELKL
Another assay concerns the target MSK1 (Homo sapiens, UniProt O75582). As to conditions: read-out: Remaining protein kinase activity.
For another assay, the target named is T2, MST2 (Homo sapiens, UniProt Q13188).
T2 sequence (Q13188 1-491): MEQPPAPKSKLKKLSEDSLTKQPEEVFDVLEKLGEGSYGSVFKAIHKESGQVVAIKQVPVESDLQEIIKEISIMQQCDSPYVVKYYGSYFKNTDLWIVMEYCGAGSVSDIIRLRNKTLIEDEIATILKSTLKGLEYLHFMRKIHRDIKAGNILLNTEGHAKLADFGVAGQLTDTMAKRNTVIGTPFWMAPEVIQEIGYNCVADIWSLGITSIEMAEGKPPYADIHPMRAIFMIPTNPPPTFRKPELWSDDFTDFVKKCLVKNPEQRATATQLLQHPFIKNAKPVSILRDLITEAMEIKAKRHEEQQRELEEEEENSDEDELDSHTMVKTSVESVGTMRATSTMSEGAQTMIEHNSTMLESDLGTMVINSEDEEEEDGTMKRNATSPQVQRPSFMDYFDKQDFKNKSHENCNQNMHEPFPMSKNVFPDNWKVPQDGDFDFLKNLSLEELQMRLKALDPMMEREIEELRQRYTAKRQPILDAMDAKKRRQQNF
As to conditions: read-out: Remaining protein kinase activity.

Another assay deals with T3, PDK1 (Homo sapiens, UniProt O15530).
T3 sequence (O15530 1-556): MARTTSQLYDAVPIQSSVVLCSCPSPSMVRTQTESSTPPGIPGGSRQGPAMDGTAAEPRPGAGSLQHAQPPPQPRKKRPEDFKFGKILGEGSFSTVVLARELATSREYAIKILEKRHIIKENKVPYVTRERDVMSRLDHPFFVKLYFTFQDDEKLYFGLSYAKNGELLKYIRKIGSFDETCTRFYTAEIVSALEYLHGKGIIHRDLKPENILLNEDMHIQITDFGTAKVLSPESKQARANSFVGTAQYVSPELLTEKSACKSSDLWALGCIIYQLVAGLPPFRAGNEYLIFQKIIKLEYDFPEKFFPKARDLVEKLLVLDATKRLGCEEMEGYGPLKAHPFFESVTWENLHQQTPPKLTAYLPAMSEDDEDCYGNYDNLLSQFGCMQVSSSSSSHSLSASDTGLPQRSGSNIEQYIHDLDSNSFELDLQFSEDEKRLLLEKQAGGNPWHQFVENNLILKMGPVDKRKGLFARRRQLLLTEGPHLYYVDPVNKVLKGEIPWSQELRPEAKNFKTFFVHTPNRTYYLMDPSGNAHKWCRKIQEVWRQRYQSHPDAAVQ
As to conditions: read-out: Remaining protein kinase activity.

The target of the next assay is T4, p38d MAPK (Homo sapiens, UniProt O15264).
T4 sequence (O15264 1-365): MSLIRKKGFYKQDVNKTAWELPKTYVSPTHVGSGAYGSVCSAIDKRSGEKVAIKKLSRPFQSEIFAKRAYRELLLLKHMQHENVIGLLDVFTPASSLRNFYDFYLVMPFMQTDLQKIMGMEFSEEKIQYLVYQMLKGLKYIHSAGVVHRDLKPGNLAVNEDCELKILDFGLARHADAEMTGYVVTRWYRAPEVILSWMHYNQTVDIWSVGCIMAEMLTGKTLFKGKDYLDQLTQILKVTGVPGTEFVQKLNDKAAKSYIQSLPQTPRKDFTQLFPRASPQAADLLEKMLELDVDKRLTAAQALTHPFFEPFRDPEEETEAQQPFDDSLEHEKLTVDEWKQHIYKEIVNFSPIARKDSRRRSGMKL
As to conditions: read-out: Remaining protein kinase activity.

Each structure is given as a SMILES string. Like-named read-outs stand apart in the source and are kept apart here.

Chain of IR (P06213 28-1382): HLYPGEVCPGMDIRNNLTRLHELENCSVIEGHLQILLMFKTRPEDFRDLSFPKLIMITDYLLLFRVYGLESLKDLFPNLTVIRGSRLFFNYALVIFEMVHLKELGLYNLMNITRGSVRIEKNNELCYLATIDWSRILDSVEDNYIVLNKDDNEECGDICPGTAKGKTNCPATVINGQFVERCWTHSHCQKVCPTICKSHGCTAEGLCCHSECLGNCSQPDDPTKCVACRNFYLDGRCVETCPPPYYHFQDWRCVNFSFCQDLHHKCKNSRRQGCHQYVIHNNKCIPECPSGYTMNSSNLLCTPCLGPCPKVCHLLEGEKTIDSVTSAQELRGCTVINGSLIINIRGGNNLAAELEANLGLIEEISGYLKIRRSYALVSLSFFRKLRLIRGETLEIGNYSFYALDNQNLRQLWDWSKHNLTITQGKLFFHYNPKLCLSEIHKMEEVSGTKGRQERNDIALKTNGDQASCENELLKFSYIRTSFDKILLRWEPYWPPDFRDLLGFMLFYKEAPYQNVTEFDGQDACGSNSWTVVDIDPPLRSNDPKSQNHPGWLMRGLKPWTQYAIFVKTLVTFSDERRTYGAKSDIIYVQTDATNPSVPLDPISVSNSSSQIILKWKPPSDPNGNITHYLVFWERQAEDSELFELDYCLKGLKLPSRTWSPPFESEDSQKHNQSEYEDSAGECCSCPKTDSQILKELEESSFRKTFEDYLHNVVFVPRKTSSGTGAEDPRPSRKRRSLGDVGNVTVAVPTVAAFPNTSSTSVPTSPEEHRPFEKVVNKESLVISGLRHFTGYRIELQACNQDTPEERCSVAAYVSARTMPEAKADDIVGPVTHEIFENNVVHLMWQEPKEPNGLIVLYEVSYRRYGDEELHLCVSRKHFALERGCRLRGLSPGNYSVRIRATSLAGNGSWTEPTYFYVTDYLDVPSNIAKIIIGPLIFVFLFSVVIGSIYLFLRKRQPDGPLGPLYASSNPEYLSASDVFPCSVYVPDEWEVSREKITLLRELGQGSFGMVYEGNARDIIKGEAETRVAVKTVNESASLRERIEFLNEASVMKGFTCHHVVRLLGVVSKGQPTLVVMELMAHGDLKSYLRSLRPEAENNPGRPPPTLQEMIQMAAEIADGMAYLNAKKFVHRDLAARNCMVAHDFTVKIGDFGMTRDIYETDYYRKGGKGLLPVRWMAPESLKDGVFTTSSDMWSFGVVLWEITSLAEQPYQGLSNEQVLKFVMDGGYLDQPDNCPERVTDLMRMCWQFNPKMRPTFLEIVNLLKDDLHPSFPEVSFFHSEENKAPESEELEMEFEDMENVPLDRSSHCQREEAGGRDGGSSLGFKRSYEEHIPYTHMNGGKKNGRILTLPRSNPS
Chain of ABL (P00519 whole entry): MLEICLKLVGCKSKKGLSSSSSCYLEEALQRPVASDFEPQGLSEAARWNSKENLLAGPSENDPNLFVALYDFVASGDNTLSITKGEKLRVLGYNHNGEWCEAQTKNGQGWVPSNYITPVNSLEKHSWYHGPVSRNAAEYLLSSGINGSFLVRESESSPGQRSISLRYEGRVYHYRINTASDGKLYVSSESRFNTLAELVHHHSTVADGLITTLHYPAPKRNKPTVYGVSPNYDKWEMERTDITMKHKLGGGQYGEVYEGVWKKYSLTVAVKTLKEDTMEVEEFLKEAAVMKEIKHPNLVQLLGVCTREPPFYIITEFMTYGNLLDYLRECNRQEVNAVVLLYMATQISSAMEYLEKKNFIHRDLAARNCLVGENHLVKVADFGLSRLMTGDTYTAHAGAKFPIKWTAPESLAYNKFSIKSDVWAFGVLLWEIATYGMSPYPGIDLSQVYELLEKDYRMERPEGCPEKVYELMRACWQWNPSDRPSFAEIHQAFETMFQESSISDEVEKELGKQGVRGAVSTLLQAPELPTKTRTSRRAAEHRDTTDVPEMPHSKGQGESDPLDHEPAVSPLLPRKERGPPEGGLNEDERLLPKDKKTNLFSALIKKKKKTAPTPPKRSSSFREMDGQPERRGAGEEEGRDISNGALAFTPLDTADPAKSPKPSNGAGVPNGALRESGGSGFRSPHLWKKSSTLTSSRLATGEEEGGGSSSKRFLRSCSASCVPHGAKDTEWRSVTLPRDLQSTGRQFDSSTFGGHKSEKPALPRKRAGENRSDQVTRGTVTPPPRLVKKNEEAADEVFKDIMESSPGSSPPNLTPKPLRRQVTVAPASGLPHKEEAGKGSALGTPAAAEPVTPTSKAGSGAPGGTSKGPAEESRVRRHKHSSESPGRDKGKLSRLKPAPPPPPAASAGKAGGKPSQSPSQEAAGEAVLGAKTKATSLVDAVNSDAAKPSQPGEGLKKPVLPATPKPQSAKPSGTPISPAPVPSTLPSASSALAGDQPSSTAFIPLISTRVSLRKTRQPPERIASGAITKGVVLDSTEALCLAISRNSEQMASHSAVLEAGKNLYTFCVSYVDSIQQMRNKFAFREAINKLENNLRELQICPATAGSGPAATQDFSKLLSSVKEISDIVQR

As for `COc1ccc2sc(-c3cncc(NC(C)=O)c3)nc2c1` [PST-001, N-(5-(5-Methoxybenzo[d]thiazol-2-yl)pyridin-3-yl)acetamide], the remaining activity (usually the signal under treatment as a percentage of the control signal) at 1 µM on ABL amounted to 97%; on IR it was 116%; on IRR, 117%; at MARK1 it was 122%; at MARK3, 99%; at MSK1, 104%. Besides, the remaining activity at 1 µM on MST2 came out at 120%; at PDK1 it was 110%; at p38d MAPK it was 115%. In addition, the remaining activity at 100 µM on ABL was 99%; at IR, 120%; on IRR, 120%; on MARK1 it was 110%; at MARK3 it was 95%; at MSK1 it was 64%. Further, the values for the remaining activity at 100 µM at MST2, at PDK1 and at p38d MAPK were 54%, 105% and 112%, respectively. The “Remaining protein kinase activity” value on IRAK4 (1 μM) came to 88%; at IRAK4 (100 μM), 32%; at JAK2 (1 μM), 123%; on JAK2 (100 μM) it was 125%.

For `COc1ccc2sc(-c3cncc(N)c3)nc2c1` [compound 1, 5-(5-Methoxybenzo[d]thiazol-2-yl)pyridin-3-amine], the remaining activity at 1 µM is 108% on ABL (ABL, 1 μM); 108% at IR (IR, 1 μM); 113% on IRR (IRR, 1 μM); 122% on MARK1 (MARK1, 1 μM); 98% at MARK3 (MARK3, 1 μM); 109% on MSK1 (MSK1, 1 μM). Further, the remaining activity at 1 µM at MST2 (MST2, 1 μM) came out at 124%; on PDK1 (PDK1, 1 μM), 104%; on p38d MAPK (p38d MAPK, 1 μM) it was 116%. The remaining activity at 100 µM on ABL (ABL, 100 μM) came out at 46%; at IR (IR, 100 μM), 45%; on IRR (IRR, 100 μM), 77%; at MARK1 (MARK1, 100 μM), 69%; on MARK3 (MARK3, 100 μM), 34%; at MSK1 (MSK1, 100 μM) it was 60%. The remaining activity at 100 µM on MST2 (MST2, 100 μM) worked out at 32%; on PDK1 (PDK1, 100 μM) it was 67%; on p38d MAPK (p38d MAPK, 100 μM), 95%. For the same molecule, the “Remaining protein kinase activity” value at IRAK4 (1 μM) stood at 85%; at IRAK4 (100 μM), 18%; at JAK2 (1 μM) it was 117%; at JAK2 (100 μM), 55%.
